Where two headings read alike, the source gives them in different places. Where a SMILES comes first, the peptide text is derived from it. Bridges are numbered along the chain shown (N, C = ends). [ ]: non-standard residue; d: D form. The star is where a group is joined. hPhe(3-Cl-4-CF3) = N[C@@H](CCc1ccc(C(F)(F)F)c(Cl)c1)C(=O)O; NPrPhe(4-CF3) = CCCN[C@@H](Cc1ccc(C(F)(F)F)cc1)C(=O)O; NMePhe(4-Me) = CN[C@@H](Cc1ccc(C)cc1)C(=O)O; NMeGly(cPent) = CN[C@H](C(=O)O)C1CCCC1; Pro(4,4-F2) = O=C(O)[C@@H]1CC(F)(F)CN1; NMeGly(cBu) = CN[C@H](C(=O)O)C1CCC1; NMeD = CN[C@@H](CC(=O)O)C(=O)O; NMeL = CN[C@@H](CC(C)C)C(=O)O; Morpholide = C1CN(*)CCO1; NMeA = CN[C@@H](C)C(=O)O; Ac5c = NC1(C(=O)O)CCCC1; Aze = O=C(O)[C@@H]1CCN1; NPrGly = CCCNCC(=O)O; NEtG = CCNCC(=O)O; Sar = CNCC(=O)O
Legend:
[1] = target: GDP-bound KRAS wild-type protein (Homo sapiens, UniProt P01116); experiment: Binding to KRAS by surface plasmon resonance (SPR), Single Cycle Kinetics; conditions: GDP-bound KRAS wild-type protein, read-out: KRAS KD
[2] = target: GDP-bound NRAS wild-type protein (Homo sapiens, UniProt P01111); experiment: Binding to NRAS by surface plasmon resonance (SPR), Single Cycle Kinetics; conditions: SPR, GDP-bound NRAS wild-type protein vs GDP-bound KRAS wild-type protein
[3] = target: GDP-bound HRAS wild-type protein (Homo sapiens, UniProt P01112); experiment: Binding to HRAS by surface plasmon resonance (SPR), Single Cycle Kinetics; conditions: SPR, GDP-bound HRAS wild-type protein vs GDP-bound KRAS wild-type protein
[4] = SPR Single Cycle Kinetics, 1:1 binding model
[5] = SPR, Single Cycle Kinetics, 1:1 binding model

Sequence of GDP-bound NRAS wild-type protein (P01111 whole entry): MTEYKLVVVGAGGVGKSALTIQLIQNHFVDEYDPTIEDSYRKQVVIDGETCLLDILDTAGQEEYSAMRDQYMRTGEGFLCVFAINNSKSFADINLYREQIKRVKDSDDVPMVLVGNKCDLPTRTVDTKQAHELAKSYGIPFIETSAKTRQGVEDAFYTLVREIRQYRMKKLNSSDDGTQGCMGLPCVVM
Sequence of GDP-bound KRAS wild-type protein (P01116 whole entry): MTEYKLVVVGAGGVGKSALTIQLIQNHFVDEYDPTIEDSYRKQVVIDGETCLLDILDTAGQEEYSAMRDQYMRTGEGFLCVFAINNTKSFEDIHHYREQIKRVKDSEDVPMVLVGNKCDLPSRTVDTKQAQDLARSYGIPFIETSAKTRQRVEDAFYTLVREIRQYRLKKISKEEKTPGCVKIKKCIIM
Sequence of GDP-bound HRAS wild-type protein (P01112 whole entry): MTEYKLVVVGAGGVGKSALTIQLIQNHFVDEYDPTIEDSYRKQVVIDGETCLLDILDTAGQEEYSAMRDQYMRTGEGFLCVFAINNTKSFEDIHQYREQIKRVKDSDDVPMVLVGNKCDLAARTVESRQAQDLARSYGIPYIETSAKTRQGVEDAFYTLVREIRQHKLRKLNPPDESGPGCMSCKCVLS

| Kd [1, 4] [nM] | Kd ([1]; SPR, Single Cycle Kinetics) [nM] | SMILES | NRAS/KRAS (ratio of KD value for NRAS to KD value for KRAS) [2] | HRAS/KRAS (ratio of KD value for HRAS to KD value for KRAS) [3] | other results |
| --- | --- | --- | --- | --- | --- |
| 0.033 |  | CCO[C@@H]1C[C@H]2C(=O)NC3(CCC3)C(=O)N(C)[C@@H](C3CCCC3)C(=O)N(C)[C@H](C(=O)N3CCOCC3)CC(=O)N(C)[C@@H](CC3CCC3)C(=O)N[C@@H]([C@@H](C)CC)C(=O)N(C)CC(=O)N(C)[C@H]3CCCCN(C3=O)[C@@H](Cc3ccc(C(F)(F)F)cc3)C(=O)N(C)CC(=O)N[C@@H](CCc3cc(F)c(C(F)(F)F)c(F)c3)C(=O)N2C1 [PP0713] |  |  | NRAS/KRAS (ratio of KD value with respect to NRAS to KD value with respect to KRAS) [2]: C (A compound having a KD ratio of 0.1 or more and less than 3 is denoted as C); HRAS/KRAS (ratio of KD value with respect to HRAS to KD value with respect to KRAS) [3]: B (a compound having 3 or more and less than 10 is denoted as B) |
| 0.019 |  | CC[C@H](C)[C@@H]1NC(=O)[C@H](CC(C)C)N(C)C(=O)C[C@@H](C(=O)N(C)C)N(C)C(=O)[C@H](C2CCCC2)N(C)C(=O)C2(CCCC2)NC(=O)[C@@H]2CC(F)(F)CN2C(=O)[C@H](CCc2cc(F)c(C(F)(F)F)c(F)c2)NC(=O)CN(C)C(=O)[C@H](Cc2ccc(C(F)(F)F)cc2)N2CCCC[C@@H](C2=O)N(C)C(=O)CN(C)C1=O [PP0576] |  |  | NRAS/KRAS (ratio of KD value with respect to NRAS to KD value with respect to KRAS) [2]: C (A compound having a KD ratio of 0.1 or more and less than 3 is denoted as C); HRAS/KRAS (ratio of KD value with respect to HRAS to KD value with respect to KRAS) [3]: B (a compound having 3 or more and less than 10 is denoted as B) |
|  | 0.45 | CCO[C@@H]1C[C@H]2C(=O)NC3(CCC3)C(=O)N(C)[C@@H](C3CCCC3)C(=O)N(C)[C@H](C(=O)N(C)C)CC(=O)N(C)[C@@H](CC)C(=O)N[C@@H]([C@@H](C)CC)C(=O)N[C@@H](C)C(=O)N(C)[C@H]3C/C=C\CCN(C3=O)[C@@H](Cc3ccc(C(F)(F)F)cc3)C(=O)N(C)CC(=O)N[C@@H](CCc3cc(F)c(C(F)(F)F)c(F)c3)C(=O)N2C1 [PP1065] | A (a compound having 10 or more and less than 20 is denoted as A) | B (a compound having 3 or more and less than 10 is denoted as B) |  |
| 7 |  | CC[C@H](C)[C@@H]1NC(=O)[C@H](CC(C)C)N(C)C(=O)C[C@@H](C(=O)N2CCOCC2)N(C)C(=O)[C@H](C2CCCC2)N(C)C(=O)C2(CCCC2)NC(=O)[C@@H]2CCCN2C(=O)[C@H](CCc2ccc(C(F)(F)F)c(Cl)c2)NC(=O)CN(CC)C(=O)[C@H](Cc2ccc(C)cc2)N(C)C(=O)CN(CC)C(=O)CN(C)C1=O [PP0029] ([NMeL]I[Sar][NEtG][NMePhe(4-Me)][NEtG][hPhe(3-Cl-4-CF3)]P[Ac5c][NMeGly(cPent)][NMeD]-Morpholide; lactam N-11) | C (A compound having a KD ratio of 0.1 or more and less than 3 is denoted as C) | C (A compound having a KD ratio of 0.1 or more and less than 3 is denoted as C) |  |
|  | 0.089 | CCO[C@@H]1C[C@H]2C(=O)NC3(CCC3)C(=O)N(C)[C@@H](C3CCCC3)C(=O)N(C)[C@H](C(=O)N(C)C)CC(=O)N(C)[C@@H](Cc3cccc(F)c3)C(=O)N[C@@H]([C@@H](C)CC)C(=O)N(C)CC(=O)N(C)[C@H]3C/C=C\CCN(C3=O)[C@@H](Cc3ccc(C(F)(F)F)cc3)C(=O)N(C)CC(=O)N[C@@H](CCc3cc(F)c(C(F)(F)F)c(F)c3)C(=O)N2C1 [PP1126, (2S,8S,12R,14S,20S,23S,27S,30S,36S,38Z)-20-cyclopentyl-8-[2-[3,5-difluoro-4-(trifluoromethyl)phenyl]ethyl]-12-ethoxy-27-[(3-fluorophenyl)methyl]-N,N,4,19,22,26,32,35-octamethyl-30-[(1S)-1-methylpropyl]-3,6,9,15,18,21,25,28,31,34,42-undecaoxo-2-[[4-(trifluoromethyl)phenyl]methyl]spiro[1,4,7,10,16,19,22,26,29,32,35-undecazatricyclo[34.5.1.0^10,14]dotetracont-38-ene-17,1′-cyclobutane]-23-carboxamide] | A (a compound having 10 or more and less than 20 is denoted as A) | A (a compound having 10 or more and less than 20 is denoted as A) |  |
| 0.42 |  | CCCN1CC(=O)NC2(CCCC2)C(=O)N(C)[C@@H](C2CCCC2)C(=O)N(C)[C@H](C(=O)N2CCOCC2)CC(=O)N(C)[C@@H](CC(C)C)C(=O)N[C@@H]([C@@H](C)CC)C(=O)N(C)[C@@H](C)C(=O)N2CC[C@H]2C(=O)N(CCC)[C@@H](Cc2ccc(C(F)(F)F)cc2)C(=O)N(C)CC(=O)N[C@@H](CCc2ccc(C(F)(F)F)c(Cl)c2)C1=O [PP0288] ([NMeL]I[NMeA][Aze][NPrPhe(4-CF3)][Sar][hPhe(3-Cl-4-CF3)][NPrGly][Ac5c][NMeGly(cPent)][NMeD]-Morpholide; lactam N-11) | C (A compound having a KD ratio of 0.1 or more and less than 3 is denoted as C) | B (a compound having 3 or more and less than 10 is denoted as B) |  |
|  | 0.15 | C#CCN1CC(=O)N(C)[C@H]2C/C=C\CCN(C2=O)[C@@H](Cc2ccc(C(F)(F)F)cc2)C(=O)N(C)CC(=O)N[C@@H](CCc2ccc(C(F)(F)F)c(OC)c2)C(=O)N2C[C@H](OCC)C[C@H]2C(=O)NC2(CC(C)(C)C2)C(=O)N(C)[C@@H](C2CCCC2)C(=O)N(C)[C@H](C(=O)N(C)C)CC(=O)N(C)[C@@H](CCC)C(=O)N[C@@H]([C@@H](C)CC)C1=O [PP2107] | A (a compound having 10 or more and less than 20 is denoted as A) | A (a compound having 10 or more and less than 20 is denoted as A) |  |
|  |  | CCO[C@@H]1C[C@H]2C(=O)NC3(CCC3)C(=O)N(C)[C@@H](C3CCCC3)C(=O)N(C)[C@H](C(=O)N(C)CC)CC(=O)N(C)[C@@H](CC(C)C)C(=O)N[C@@H]([C@@H](C)CC)C(=O)N(C)CC(=O)N(C)[C@H]3C/C=C\CCN(C3=O)[C@@H](Cc3ccc(C(F)(F)F)cc3)C(=O)N(C)CC(=O)N[C@@H](CCc3cc(F)c(C(F)(F)F)c(F)c3)C(=O)N2C1 [PP1300, (2S,8S,12R,14S,20S,23S,27S,30S,36S,38Z)-20-cyclopentyl-8-[2-[3,5-difluoro-4-(trifluoromethyl)phenyl]ethyl]-12-ethoxy-N-ethyl-27-isobutyl-N,4,19,22,26,32,35-heptamethyl-30-[(1S)-1-methylpropyl]-3,6,9,15,18,21,25,28,31,34,42-undecaoxo-2-[[4-(trifluoromethyl)phenyl]methyl]spiro[1,4,7,10,16,19,22,26,29,32,35-undecazatricyclo[34.5.1.0^10,14]dotetracont-38-ene-17,1′-cyclobutane]-23-carboxamide] |  |  | Kd [1, 5]: 0.082 nM; NRAS/KRAS (ratio of KD value for NRAS to KD value for KRAS) ([2]; KD ratio class): A (a compound having 10 or more and less than 20 is denoted as A); HRAS/KRAS (ratio of KD value for HRAS to KD value for KRAS) ([3]; KD ratio class): A (a compound having 10 or more and less than 20 is denoted as A) |
|  |  | CCCOC[C@H]1C(=O)N[C@@H]([C@@H](C)CC)C(=O)N(C)CC(=O)N(C)[C@H]2C/C=C\CCN(C2=O)[C@@H](Cc2ccc(C(F)(F)F)cc2)C(=O)N(C)CC(=O)N[C@@H](CCc2cc(F)c(C(F)(F)F)c(F)c2)C(=O)N2C[C@H](OCC)C[C@H]2C(=O)NC2(CC(C)(C)C2)C(=O)N(C)[C@@H](C2CCCC2)C(=O)N(C)[C@H](C(=O)N(C)CC)CC(=O)N1C [PP1572] |  |  | Kd [1, 5]: 0.078 nM; NRAS/KRAS (ratio of KD value for NRAS to KD value for KRAS) ([2]; KD ratio class): A (a compound having 10 or more and less than 20 is denoted as A); HRAS/KRAS (ratio of KD value for HRAS to KD value for KRAS) ([3]; KD ratio class): A (a compound having 10 or more and less than 20 is denoted as A) |
| 0.22 |  | CCCN1C(=O)CN(C)C(=O)CN(C)C(=O)[C@H]([C@@H](C)CC)NC(=O)[C@H](C2CCC2)N(C)C(=O)C[C@@H](C(=O)N2CCOCC2)N(C)C(=O)[C@H](C2CCCC2)N(C)C(=O)C2(CCCC2)NC(=O)[C@@H]2CC(F)(F)CN2C(=O)[C@H](CCc2ccc(C(F)(F)F)c(Cl)c2)NC(=O)CN(C)C(=O)[C@@H]1Cc1ccc(C(F)(F)F)cc1 [PP0200] ([NMeGly(cBu)]I[Sar][Sar][NPrPhe(4-CF3)][Sar][hPhe(3-Cl-4-CF3)][Pro(4,4-F2)][Ac5c][NMeGly(cPent)][NMeD]-Morpholide; lactam N-11) | C (A compound having a KD ratio of 0.1 or more and less than 3 is denoted as C) | C (A compound having a KD ratio of 0.1 or more and less than 3 is denoted as C) |  |
| 2.7 |  | CCO[C@@H]1C[C@H]2C(=O)NC3(CCC3)C(=O)N(C)[C@@H](C3CCCC3)C(=O)N(CCC3CCC3)[C@H](C(=O)N(C)C)CC(=O)N(C)[C@@H](CC)C(=O)N[C@@H]([C@@H](C)CC)C(=O)N(C)CC(=O)N(C)[C@H]3CCCCCN(C3=O)[C@@H](Cc3ccc(C(F)(F)F)cc3)C(=O)N(C)CC(=O)N[C@@H](CCc3cc(F)c(C(F)(F)F)c(F)c3)C(=O)N2C1 [PP0635] |  |  | NRAS/KRAS (ratio of KD value with respect to NRAS to KD value with respect to KRAS) [2]: B (a compound having 3 or more and less than 10 is denoted as B); HRAS/KRAS (ratio of KD value with respect to HRAS to KD value with respect to KRAS) [3]: B (a compound having 3 or more and less than 10 is denoted as B) |
|  | 0.25 | CCO[C@@H]1C[C@H]2C(=O)NC3(CC(C)(C)C3)C(=O)N(C)[C@@H](C(CC)CC)C(=O)N(C)[C@H](C(=O)N(C)C)CC(=O)N(C)[C@@H](CC)C(=O)N[C@@H]([C@@H](C)CC)C(=O)N(C)CC(=O)N(C)[C@H]3C/C=C\CCN(C3=O)[C@@H](Cc3ccc(C(F)(F)F)cc3)C(=O)N(C)CC(=O)N[C@@H](CCc3ccc(C(F)(F)F)c(OC)c3)C(=O)N2C1 [PP2066] | A (a compound having 10 or more and less than 20 is denoted as A) | B (a compound having 3 or more and less than 10 is denoted as B) |  |
